Source: US8809396B2, “Substituted fused-ring compounds for inflammation and immune-related uses” (Synta Pharmaceuticals Corp., priority 2007, dated 2014)
pIC50: −log10 of the molar value.

System: IL-2 production
Assay: Inhibition of IL-2 production in PHA-activated Jurkat cells (ELISA)
Assay type: cell-based
Settings: Homo sapiens, PHA 2.5 μg/mL, 20 hours, IL-2 ELISA
Procedure: Jurkat cells were placed in a 96 well plate (0.5 million cells per well in 1% FBS medium) then a test compound of this invention was added at different concentrations. After 10 minutes, the cells were activated with PHA (final concentration 2.5 μg/mL) and incubated for 20 hours at 37° C. under CO2. The final volume was 200 μL. Following incubation, the cells were centrifuged and the supernatants collected and stored at −70° C. prior to assaying for IL-2 production. A commercial ELISA kit (IL-2 Eli-pair, Diaclone Research, Besancon, France) was used to detect production of IL-2, from which dose response curves were obtained. The IC50 value was calculated as the concentration at which 50% of maximum IL-2 production after stimulation was inhibited versus a non-stimulation control.

pIC50	SMILES
< 6.00	C/C(CO)=C1/CCCc2cc(NC(=O)c3c(F)cccc3F)ccc21 [Compound 5, 2,6-Difluoro-N-[5-(2-hydroxy-1-methyl-ethylidene)-5,6,7,8-tetrahydro-naphthalen-2-yl]-benzamide]
< 6.00	COC(=O)/C(C)=C1\CCCc2cc(NC(=O)c3c(F)cccc3F)ccc21 [Compound 2, 2-[6-(2,6-Difluoro-benzoylamino)-3,4-dihydro-2H-naphthalen-1-ylidene]-propionic acid methyl ester]
6.25	CC(=O)Nc1ccc(C2=CCCCc3cc(NC(=O)c4c(F)cccc4F)ccc32)cc1 [Compound 9, 2,6-Difluoro-N-[5-(4-acetylamino-phenyl)-8,9-dihydro-7H-benzocyclohepten-2-yl]-benzamide]
< 6.00	C/C(C(=O)O)=C1/CCCc2cc(NC(=O)c3c(F)cccc3F)ccc21 [Compound 1, 2-[6-(2,6-Difluoro-benzoylamino)-3,4-dihydro-2H-naphthalen-1-ylidene]-propionic acid]
7.74	C/C(C(=O)N1CCOCC1)=C1/CCCc2cc(NC(=O)c3c(F)cccc3F)ccc21 [Compound 3, 2,6-Difluoro-N-[5-(1-methyl-2-morpholin-4-yl-2-oxo-ethylidene)-5,6,7,8-tetrahydro-naphthalen-2-yl]-benzamide]
6.77	O=C(Nc1ccc2c(c1)CCCC=C2c1ccccc1)c1c(F)cccc1F [Compound 6, 2,6-Difluoro-N-(5-phenyl-8,9-dihydro-7H-benzocyclohepten-2-yl)-benzamide]
6.84	Nc1ccc(C2=CCCCc3cc(NC(=O)c4c(F)cccc4F)ccc32)cc1 [Compound 8, 2,6-Difluoro-N-[5-(4-amino-phenyl)-8,9-dihydro-7H-benzocyclohepten-2-yl]-benzamide]
6.41	CC1=C(c2ccccc2)c2ccc(NC(=O)c3c(F)cccc3F)cc2CCC1 [Compound 7, 2,6-Difluoro-N-(5-phenyl-6-methyl-8,9-dihydro-7H-benzocyclohepten-2-yl)-benzamide]
